Test results reported in patent US9125930B2, “EGFR aptamer inhibitor for use in therapy and diagnosis” (CONSIGLIO NAZIONALE DELLE RICERCHE, priority 2010, dated 2015).

Columns and labels:
STAT 3 = test: Immunoblot of EGF-induced STAT3 phosphorylation; assay type: cell-based, human; details: data not shown
Procedure: To assess the effects of aptamers on EGFR activity, A549 cells (1.5×10^5 cells per 3.5-cm plate) were serum-starved over night, pretreated with 200 nM CL4 42-81 aptamer or the scrambled aptamer used as a negative control for 3 h and then stimulated for 30 min with 50 ng/ml EGF (R&D Systems, Minneapolis, Minn.) either alone or in presence of each aptamer. The aptamers were subjected to a short denaturation-renaturation step (85° C. for 5 min, snap-cooled on ice for 2 min, and allowed to warm up to 37° C.) before each treatment. To prepare cell extracts, cells were washed twice in ice-cold PBS, and lysed in buffer A (50 mM Tris-HCl pH 8.0 buffer containing 150 mM NaCl, 1% Nonidet P-40, 2 mg/ml aprotinin, 1 mg/ml pepstatin, 2 mg/ml leupeptin, 1 mM Na3VO4). Protein concentration was determined by the Bradford assay using bovine serum albumin as the standard. The cell lysates were subjected to SDS-PAGE. […]

[1] = test system: epidermoid carcinoma A431 cells; test: Binding on A431 cells; set-up: species or system human; details: high level of EGFR; 100 nM
Procedure: (§1) Binding experiments were performed with 5′-[^32P]-labeled RNA. For labeling 2′-F-Py RNAs were 5′-end dephosphorylated using bacterial alcaline phosphatase (Invitrogen, Carlsbad, Calif.) before [^32P]-5′-end-labeled using T4 kinase (Invitrogen) and γ-[^32P]-ATP (6×10^3 Ci/mmol, GE Healthcare Bio-Sciences, Uppsala, Sweden) according to the supplier's instructions.
(§2) For binding experiments on cells, 3.5×10^4 cells were plated in 24-well plates in triplicate and were incubated with CL4 42-81 aptamer the scrambled sequence used as a negative control at 100 nM concentration in 200 μl of DMEM serum free for 20 min at RT in the presence of 100 μg/ml polyinosine as a nonspecific competitor (Sigma, St. Louis, Mo.). After five washings with 500 μl DMEM, bound sequences were recovered in 300 μl of SDS 1%, and the amount of radioactivity recovered was counted.

[2] = test system: NIH3T3 cells stably transfected with human EGFR (NIH/EGFR); test: Binding on NIH/EGFR cells; set-up: species or system mouse; details: [32P]-labeled aptamer at 100 nM; relative to scrambled aptamer
Procedure: Human NSCLC A549, epidermoid carcinoma A431, glioma U87MG and T98G, breast SKBr3, MCF7 and T47D and mouse fibroblast NIH3T3 (all from American Type Culture Collection, Manassas, Va.) cells were grown in Dulbecco's modified Eagle medium (DMEM) supplemented with 10% fetal bovine serum (FBS) and 2 mM L-glutamine (Invitrogen, Carlsbad, Calif.). NIH3T3 cells stably transfected with human EGFR (NIH/EGFR) were grown in DMEM with 10% FBS and 2 mM L-glutamine supplemented with 50 μg/ml Gentamycin.
as §1, §2

[3] = molecular target: T1, soluble extracellular domain of human EGFR (EC-EGFR) (Homo sapiens, UniProt P00533); test: Filter binding on soluble extracellular domain of EGFR
T1 construct: purchased R&D Systems
Procedure: as §1
(§3) The aptamers ability to bind EGFR or ErbB3 soluble extracellular domain (EC-EGFR and EC-ErbB3) was investigated by filter binding by plotting the fraction of RNA bound to the nitrocellulose filter as a function of protein concentration, using the following equation:
(§4) [formula] where Bmax is the extrapolated maximal amount of RNA:protein complex that will be bound. 1 nM of radiolabelled aptamers (CL4 42-81 aptamer or the scrambled sequence) were incubated with 1, 3.2, 10, 32, 100, 320 and 1000 nM of EC-EGFR and EC-ErbB3 (all from R&D Systems, Minneapolis, Minn.) for 15 min at 37° in phosphate-buffered saline (PBS) supplemented with 0.01% bovine serum albumin.
(§5) In order to test the binding for dimeric and monomeric proteins, 1 nM of radiolabelled aptamers (CL4 42-81 or scrambled) were incubated with 20 nM of EC-EGFR and EC-ErbB3 without or with 5 mM DTT.
(§6) After incubation, the aptamer-protein mix was passed through nitrocellulose membrane filter (Millipore Co., Bedford, Mass.) and filters were counted. […]

breast MCF7 = test: Binding on MCF7 cells; set-up: species or system human; details: no or very low expression of EGFR; 100 nM
Procedure: as §1, §2

breast T47D = test: Binding on T47D cells; set-up: species or system human; details: no or very low expression of EGFR; 100 nM
Procedure: as §1, §2

A549 cells = test: Cell viability assay, A549 cells; assay type: cell-based, human
Procedure: Cell viability was assessed with CellTiter 96® AQueous One Solution Cell Proliferation Assay (Promega, Madison, Wis.) according to according to the supplier's instructions. […] The optical density (OD) was measured using a Multilabel Counter (Bio-Rad) at a wavelength of 490 nm and cell viability was calculated by the following formula: Cell viability (%)=(OD treated cells/OD control cells)×100%. FACS Analysis

[4] = molecular target: T2, soluble extracellular domain of human ErbB3 (EC-ErbB3) (Homo sapiens, UniProt P21860); test: Filter binding on soluble extracellular domain of ErbB3
T2 construct: purchased R&D Systems
T2 sequence (P21860 20-643 limits assumed): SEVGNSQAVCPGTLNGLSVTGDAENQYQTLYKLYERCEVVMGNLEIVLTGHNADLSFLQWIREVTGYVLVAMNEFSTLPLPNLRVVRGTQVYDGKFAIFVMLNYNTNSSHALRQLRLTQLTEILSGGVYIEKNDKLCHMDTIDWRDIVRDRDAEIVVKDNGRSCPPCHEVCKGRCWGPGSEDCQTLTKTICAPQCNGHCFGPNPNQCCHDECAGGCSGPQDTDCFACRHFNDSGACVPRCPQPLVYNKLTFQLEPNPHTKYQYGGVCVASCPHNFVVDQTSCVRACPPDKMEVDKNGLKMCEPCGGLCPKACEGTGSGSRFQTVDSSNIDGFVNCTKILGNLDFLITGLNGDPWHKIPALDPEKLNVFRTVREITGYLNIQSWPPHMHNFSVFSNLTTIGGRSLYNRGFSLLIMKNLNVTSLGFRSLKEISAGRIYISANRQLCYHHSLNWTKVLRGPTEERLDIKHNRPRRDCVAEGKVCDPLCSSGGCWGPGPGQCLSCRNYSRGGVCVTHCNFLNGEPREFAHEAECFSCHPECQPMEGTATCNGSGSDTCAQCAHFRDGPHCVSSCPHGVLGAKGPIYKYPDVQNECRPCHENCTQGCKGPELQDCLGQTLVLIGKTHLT
Procedure: as §1, §3, §4, §5, §6

[5] = Half life of the aptamer in serum; assay type: in vitro ADME; details: in 10% serum

## CL4 42-81: 2′-fluoropyrimidine nuclease-resistant RNA aptamer of 39 nt: 5′ GCCUUAGUAACGUGCUUUGAUGUCGAUUCGACAGGAGGC 3′ (SEQ ID No. 1) (2'-fluoro at CU, RNA at AG, backbone not given here)
STAT 3
  EGF-induced phosphorylation of STAT 3: decreases
[1]
  binding on A431 cells: binds
[2]
  binding on NIH/EGFR cells: binds
[3]
  Kd: 10 nM
Breast MCF7
  binding on MCF7 cells: does not bind
Breast T47D
  binding on T47D cells: does not bind
A549 cells; 200 nM-final concentration, 24 h
  sensitivity of A549 cell viability: highly sensitive
A549 cells; A549, 24 hs, 200 nM final concentration, relative to untreated cells set to 100%
  cell viability: about 60%
A549 cells; CL4 42-81 100 and 200 nM with 1 μM gefitinib, 24 h
  effectiveness on A549 cell viability in combination with gefitinib: not improved
[4]; does not bind or binds with lower affinity
  affinity for EC-ErbB3, magnitude lower: at least 10^3
[4]; filter binding, EC-ErbB3, protein up to 1000 nM
  Kd: no Kd value could be calculated
[5]
  half life of the aptamer: 6 h
